Values of other authors in patent US20100221327A1, “Nanoparticulate azelnidipine formulations” (Elan Pharma International Limited, priority 2005, published 2010).
“Also recorded” adds a separate entry of the source.

CC1=C(C(=O)OC(C)C)C(c2cccc([N+](=O)[O-])c2)C(C(=O)OC2CN(C(c3ccccc3)c3ccccc3)C2)=C(N)N1 (racemic) [Azelnidipine, (±)-3-(1-Diphenylmethylazetidin-3-yl)-5-isopropyl 2-amino-1,4-dihydro-6-methyl-4-(3-nitrophenyl)-3,5-pyridinedicarboxylate]
Solubility in water: only slightly soluble; also recorded: practically insoluble
